Holding throughout (set-up): scale not given: the % may be the effect or the level left
Assay [1] concerns the target Ribosomal protein S6 kinase beta-2 (Homo sapiens) (UniProt Q9UBS0). As to the kind of experiment: Inhibition of human p70S6Kb assessed as enzyme activity at 1 uM using KKRNRTLTK as substrate preincubated for 20 mins followed by [gamma-33P]-ATP addition and measured after 120 mins by radiometric Hot-SpotSM Kinase assay relative to control.
Assay [2] addresses Casein kinase I isoform delta (Homo sapiens) (UniProt P48730). Briefly: Inhibition of human CK1delta assessed as enzyme activity at 1 uM using KRRRAL[pS]VASLPGL as substrate preincubated for 20 mins followed by [gamma-33P]-ATP addition and measured after 120 mins by radiometric Hot-SpotSM Kinase assay relative to control.
Assay [3] addresses Mitogen-activated protein kinase kinase kinase 9 (Homo sapiens) (UniProt P80192). Briefly: Inhibition of human MLK1 assessed as enzyme activity at 1 uM using casein as substrate preincubated for 20 mins followed by [gamma-33P]-ATP addition and measured after 120 mins by radiometric Hot-SpotSM Kinase assay relative to control.
For assay [4], the target named is STE20-like serine/threonine-protein kinase (Homo sapiens) (UniProt Q9H2G2). Briefly: Inhibition of human SLK assessed as enzyme activity at 1 uM using histone H3 as substrate preincubated for 20 mins followed by [gamma-33P]-ATP addition and measured after 120 mins by radiometric Hot-SpotSM Kinase assay relative to control.
The target of assay [5] is Serine/threonine-protein kinase 16 (Homo sapiens) (UniProt O75716). As to the kind of experiment: Inhibition of human STK16 assessed as enzyme activity at 1 uM using myelin basic protein as substrate preincubated for 20 mins followed by [gamma-33P]-ATP addition and measured after 120 mins by radiometric Hot-SpotSM Kinase assay relative to control.
Assay [6] addresses Angiopoietin-1 receptor (Homo sapiens) (UniProt Q02763). As to the kind of experiment: Inhibition of human TIE2 assessed as enzyme activity at 1 uM using poly[Glu:Tyr] (4:1) as substrate preincubated for 20 mins followed by [gamma-33P]-ATP addition and measured after 120 mins by radiometric Hot-SpotSM Kinase assay relative to control.
For assay [7], the target named is CDK1/Cyclin A (Homo sapiens) (UniProt P06493+P20248). As to the kind of experiment: Inhibition of human CDK1/cyclin A assessed as enzyme activity at 1 uM using RB Protein as substrate preincubated for 20 mins followed by [gamma-33P]-ATP addition and measured after 120 mins by radiometric Hot-SpotSM Kinase assay relative to control. It is filed as protein-complex assay.

Assay [8] has as its target Dual specificity tyrosine-phosphorylation-regulated kinase 1A (Homo sapiens) (UniProt Q13627). Briefly: Inhibition of human DYRK1/DYRK1A assessed as enzyme activity at 1 uM using RRRFRPASPLRGPPK as substrate preincubated for 20 mins followed by [gamma-33P]-ATP addition and measured after 120 mins by radiometric Hot-SpotSM Kinase assay relative to control.
Assay [9] has as its target T1, Muscle, skeletal receptor tyrosine-protein kinase (Homo sapiens) (UniProt O15146).
T1 sequence (whole entry): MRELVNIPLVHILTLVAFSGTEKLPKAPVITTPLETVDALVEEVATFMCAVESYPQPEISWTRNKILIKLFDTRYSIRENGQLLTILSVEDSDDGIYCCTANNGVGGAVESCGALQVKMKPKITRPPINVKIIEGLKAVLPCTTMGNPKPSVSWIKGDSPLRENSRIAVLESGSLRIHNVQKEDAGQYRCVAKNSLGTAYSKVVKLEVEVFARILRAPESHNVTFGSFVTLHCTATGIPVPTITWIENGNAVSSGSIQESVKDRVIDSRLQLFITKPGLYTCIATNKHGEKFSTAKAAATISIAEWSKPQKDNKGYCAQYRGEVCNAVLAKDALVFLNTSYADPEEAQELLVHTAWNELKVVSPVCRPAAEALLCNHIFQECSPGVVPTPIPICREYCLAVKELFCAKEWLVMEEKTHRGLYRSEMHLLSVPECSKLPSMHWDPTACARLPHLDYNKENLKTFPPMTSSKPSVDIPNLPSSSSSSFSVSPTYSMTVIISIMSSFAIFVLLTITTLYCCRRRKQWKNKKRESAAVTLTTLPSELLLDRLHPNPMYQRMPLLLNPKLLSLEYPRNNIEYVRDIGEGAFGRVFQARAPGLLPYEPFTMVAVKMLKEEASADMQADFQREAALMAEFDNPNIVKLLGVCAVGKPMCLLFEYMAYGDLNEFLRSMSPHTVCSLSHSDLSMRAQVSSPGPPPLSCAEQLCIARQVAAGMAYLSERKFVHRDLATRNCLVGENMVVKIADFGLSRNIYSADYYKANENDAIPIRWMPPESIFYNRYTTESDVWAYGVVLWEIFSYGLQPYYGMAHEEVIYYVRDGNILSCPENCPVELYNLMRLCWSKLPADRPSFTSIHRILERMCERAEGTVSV
Briefly: Inhibition of human MUSK assessed as enzyme activity at 1 uM using myelin basic protein as substrate preincubated for 20 mins followed by [gamma-33P]-ATP addition and measured after 120 mins by radiometric Hot-SpotSM Kinase assay relative to control.

Assay [10] concerns the target Tyrosine-protein kinase BTK (Homo sapiens) (UniProt Q06187). Briefly: Inhibition of human BTK assessed as enzyme activity at 1 uM using poly[Glu:Tyr] (4:1) as substrate preincubated for 20 mins followed by [gamma-33P]-ATP addition and measured after 120 mins by radiometric Hot-SpotSM Kinase assay relative to control.
The species named for assay [11] is Homo sapiens. As to the kind of experiment: Inhibition of human PKA assessed as enzyme activity at 1 uM using LCGRTGRRNSI as substrate preincubated for 20 mins followed by [gamma-33P]-ATP addition and measured after 120 mins by radiometric Hot-SpotSM Kinase assay relative to control.
Assay [12] has as its target T2, Serine/threonine-protein kinase Sgk3 (Homo sapiens) (UniProt Q96BR1).
T2 sequence (whole entry): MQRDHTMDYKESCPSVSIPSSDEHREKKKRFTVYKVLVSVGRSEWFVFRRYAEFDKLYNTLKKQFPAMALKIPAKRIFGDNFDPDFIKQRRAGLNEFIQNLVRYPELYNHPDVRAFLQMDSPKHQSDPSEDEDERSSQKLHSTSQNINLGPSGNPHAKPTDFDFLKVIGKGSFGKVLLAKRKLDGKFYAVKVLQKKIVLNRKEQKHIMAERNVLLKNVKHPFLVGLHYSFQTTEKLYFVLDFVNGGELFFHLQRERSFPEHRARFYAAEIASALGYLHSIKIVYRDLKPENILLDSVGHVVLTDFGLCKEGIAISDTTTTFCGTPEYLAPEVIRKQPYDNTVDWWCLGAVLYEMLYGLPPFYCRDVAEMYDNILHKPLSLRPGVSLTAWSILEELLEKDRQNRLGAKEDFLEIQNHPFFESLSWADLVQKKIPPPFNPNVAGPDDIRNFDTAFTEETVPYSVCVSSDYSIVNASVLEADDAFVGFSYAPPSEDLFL
Briefly: Inhibition of human SGK3 assessed as enzyme activity at 1 uM using GRPRTSSFAEG as substrate preincubated for 20 mins followed by [gamma-33P]-ATP addition and measured after 120 mins by radiometric Hot-SpotSM Kinase assay relative to control.

Three compounds from ChEMBL document CHEMBL5715954, “Silencing c-Myc translation as a therapeutic strategy through targeting PI3Kδ and CK1ε in hematological malignancies” (Blood, 2017) can be followed below.

Tyrosine-protein kinase BTK (Homo sapiens), sequence (Q06187 whole entry): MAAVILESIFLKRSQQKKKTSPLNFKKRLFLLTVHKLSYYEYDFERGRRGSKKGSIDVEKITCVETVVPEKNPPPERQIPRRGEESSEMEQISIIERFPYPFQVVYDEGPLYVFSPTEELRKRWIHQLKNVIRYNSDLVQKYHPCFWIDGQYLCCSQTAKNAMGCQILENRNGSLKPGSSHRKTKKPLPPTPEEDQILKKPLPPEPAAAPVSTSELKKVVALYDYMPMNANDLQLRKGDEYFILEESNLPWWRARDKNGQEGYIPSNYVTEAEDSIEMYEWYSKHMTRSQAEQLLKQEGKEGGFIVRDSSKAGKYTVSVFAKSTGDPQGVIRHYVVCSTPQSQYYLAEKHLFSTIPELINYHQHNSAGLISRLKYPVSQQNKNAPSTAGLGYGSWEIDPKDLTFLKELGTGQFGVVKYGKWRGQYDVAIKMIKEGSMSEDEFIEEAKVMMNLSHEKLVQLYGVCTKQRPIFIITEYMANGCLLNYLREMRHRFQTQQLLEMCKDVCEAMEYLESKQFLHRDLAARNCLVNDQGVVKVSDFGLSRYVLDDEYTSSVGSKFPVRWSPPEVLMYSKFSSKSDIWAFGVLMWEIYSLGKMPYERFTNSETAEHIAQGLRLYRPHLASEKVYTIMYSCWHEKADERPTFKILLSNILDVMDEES
Angiopoietin-1 receptor (Homo sapiens), sequence (Q02763 whole entry): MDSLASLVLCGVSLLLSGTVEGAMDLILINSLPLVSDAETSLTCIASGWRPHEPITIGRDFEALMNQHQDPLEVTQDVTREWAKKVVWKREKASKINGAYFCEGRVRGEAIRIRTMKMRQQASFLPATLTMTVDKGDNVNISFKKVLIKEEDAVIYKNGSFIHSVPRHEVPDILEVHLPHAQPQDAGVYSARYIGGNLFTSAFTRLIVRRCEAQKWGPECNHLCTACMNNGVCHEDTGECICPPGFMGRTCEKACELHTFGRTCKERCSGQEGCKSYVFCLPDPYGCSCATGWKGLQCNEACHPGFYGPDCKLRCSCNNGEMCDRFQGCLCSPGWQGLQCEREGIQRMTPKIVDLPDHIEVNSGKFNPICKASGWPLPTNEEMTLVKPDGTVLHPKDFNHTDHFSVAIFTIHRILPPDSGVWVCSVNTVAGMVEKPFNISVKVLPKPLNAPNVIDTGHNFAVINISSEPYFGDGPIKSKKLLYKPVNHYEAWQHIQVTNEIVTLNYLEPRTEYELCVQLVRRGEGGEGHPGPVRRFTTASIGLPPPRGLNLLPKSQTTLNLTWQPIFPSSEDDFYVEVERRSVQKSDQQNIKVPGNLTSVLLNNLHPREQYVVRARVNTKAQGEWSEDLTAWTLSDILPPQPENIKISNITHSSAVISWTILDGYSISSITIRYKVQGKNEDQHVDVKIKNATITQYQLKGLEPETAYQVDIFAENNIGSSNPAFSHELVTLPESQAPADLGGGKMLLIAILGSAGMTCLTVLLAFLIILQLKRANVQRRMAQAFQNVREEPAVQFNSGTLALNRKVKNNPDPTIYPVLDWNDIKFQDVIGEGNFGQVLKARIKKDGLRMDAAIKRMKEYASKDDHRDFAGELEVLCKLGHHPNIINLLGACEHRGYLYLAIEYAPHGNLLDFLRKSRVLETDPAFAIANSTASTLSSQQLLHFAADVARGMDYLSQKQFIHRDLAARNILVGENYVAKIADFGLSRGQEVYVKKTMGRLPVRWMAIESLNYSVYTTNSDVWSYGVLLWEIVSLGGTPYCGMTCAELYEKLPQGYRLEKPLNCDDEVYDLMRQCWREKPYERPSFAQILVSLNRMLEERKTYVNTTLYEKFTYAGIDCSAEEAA
Ribosomal protein S6 kinase beta-2 (Homo sapiens), sequence (Q9UBS0 whole entry, canonical isoform): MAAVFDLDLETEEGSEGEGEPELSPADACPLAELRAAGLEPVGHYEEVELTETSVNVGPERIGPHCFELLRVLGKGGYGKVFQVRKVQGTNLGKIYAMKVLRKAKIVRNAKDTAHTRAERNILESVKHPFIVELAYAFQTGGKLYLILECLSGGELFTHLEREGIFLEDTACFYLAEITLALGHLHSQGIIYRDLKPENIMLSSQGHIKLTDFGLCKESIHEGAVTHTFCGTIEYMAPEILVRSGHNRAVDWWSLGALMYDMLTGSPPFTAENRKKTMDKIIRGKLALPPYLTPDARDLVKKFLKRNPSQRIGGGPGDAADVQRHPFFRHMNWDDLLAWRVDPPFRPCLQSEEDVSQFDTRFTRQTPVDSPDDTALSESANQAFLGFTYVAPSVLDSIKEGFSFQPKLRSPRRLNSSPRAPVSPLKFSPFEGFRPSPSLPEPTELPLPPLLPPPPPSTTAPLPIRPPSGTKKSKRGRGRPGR
Casein kinase I isoform delta (Homo sapiens), sequence (P48730 whole entry, looked up, canonical isoform): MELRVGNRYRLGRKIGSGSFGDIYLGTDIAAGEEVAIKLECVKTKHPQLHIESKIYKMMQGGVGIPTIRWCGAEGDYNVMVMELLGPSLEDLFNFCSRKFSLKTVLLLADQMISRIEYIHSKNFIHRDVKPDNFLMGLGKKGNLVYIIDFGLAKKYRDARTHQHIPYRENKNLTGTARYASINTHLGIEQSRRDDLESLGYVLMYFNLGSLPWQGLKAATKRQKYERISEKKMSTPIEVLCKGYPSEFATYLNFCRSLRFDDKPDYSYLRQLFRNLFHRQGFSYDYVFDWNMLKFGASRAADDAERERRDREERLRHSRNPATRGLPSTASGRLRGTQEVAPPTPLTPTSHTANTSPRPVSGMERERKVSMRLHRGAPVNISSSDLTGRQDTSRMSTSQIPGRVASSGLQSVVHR
STE20-like serine/threonine-protein kinase (Homo sapiens), sequence (Q9H2G2 whole entry, looked up): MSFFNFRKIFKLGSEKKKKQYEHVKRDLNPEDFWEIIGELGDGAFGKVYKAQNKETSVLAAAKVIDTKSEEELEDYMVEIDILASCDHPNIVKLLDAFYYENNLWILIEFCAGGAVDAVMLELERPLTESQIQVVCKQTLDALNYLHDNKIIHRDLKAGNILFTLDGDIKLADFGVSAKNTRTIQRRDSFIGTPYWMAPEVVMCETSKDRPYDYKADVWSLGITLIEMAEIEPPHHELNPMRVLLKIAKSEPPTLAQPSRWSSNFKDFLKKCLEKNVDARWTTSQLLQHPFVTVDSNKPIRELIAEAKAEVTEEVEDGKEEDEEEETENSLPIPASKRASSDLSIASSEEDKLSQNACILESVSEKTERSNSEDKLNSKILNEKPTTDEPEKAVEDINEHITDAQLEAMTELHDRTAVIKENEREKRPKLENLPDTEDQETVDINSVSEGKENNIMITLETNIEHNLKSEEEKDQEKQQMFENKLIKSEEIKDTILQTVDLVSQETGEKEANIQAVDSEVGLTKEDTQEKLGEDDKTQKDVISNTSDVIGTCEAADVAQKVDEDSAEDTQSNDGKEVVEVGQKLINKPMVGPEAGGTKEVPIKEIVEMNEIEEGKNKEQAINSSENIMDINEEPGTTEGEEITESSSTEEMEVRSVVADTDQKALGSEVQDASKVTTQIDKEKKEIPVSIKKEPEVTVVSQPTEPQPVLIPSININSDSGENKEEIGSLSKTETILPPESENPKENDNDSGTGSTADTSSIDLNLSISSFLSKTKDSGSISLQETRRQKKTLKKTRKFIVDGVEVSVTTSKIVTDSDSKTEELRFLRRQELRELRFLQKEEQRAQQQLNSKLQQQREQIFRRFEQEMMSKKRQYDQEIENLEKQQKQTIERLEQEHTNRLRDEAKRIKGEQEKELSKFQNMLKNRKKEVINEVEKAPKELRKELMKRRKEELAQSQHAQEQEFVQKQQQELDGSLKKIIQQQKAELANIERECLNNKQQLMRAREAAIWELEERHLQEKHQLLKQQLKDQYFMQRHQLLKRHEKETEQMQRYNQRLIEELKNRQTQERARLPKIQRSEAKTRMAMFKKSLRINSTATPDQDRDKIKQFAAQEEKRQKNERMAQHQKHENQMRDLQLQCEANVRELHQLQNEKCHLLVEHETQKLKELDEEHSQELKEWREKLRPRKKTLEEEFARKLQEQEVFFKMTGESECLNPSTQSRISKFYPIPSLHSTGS
CDK1/Cyclin A (Homo sapiens), sequence (P06493 whole entry, looked up): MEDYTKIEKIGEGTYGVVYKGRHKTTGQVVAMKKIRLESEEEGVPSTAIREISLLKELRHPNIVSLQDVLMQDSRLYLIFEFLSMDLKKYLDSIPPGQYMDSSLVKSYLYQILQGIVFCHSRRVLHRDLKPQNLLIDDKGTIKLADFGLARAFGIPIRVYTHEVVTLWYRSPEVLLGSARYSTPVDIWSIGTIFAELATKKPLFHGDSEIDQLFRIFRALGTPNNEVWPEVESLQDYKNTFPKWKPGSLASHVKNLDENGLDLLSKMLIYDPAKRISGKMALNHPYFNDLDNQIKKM
CDK1/Cyclin A (Homo sapiens), sequence (P20248 whole entry, looked up): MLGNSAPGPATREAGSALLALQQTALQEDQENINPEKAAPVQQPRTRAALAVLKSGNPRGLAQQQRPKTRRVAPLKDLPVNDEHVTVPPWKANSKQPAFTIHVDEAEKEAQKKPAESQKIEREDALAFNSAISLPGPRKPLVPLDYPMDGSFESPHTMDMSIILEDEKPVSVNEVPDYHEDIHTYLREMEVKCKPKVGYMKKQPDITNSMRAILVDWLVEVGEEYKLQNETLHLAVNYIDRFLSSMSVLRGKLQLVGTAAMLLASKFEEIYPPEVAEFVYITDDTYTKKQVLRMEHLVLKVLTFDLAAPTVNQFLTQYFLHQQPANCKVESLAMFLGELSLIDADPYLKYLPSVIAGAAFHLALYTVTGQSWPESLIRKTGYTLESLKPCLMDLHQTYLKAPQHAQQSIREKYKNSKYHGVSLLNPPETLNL
Serine/threonine-protein kinase 16 (Homo sapiens), sequence (O75716 whole entry): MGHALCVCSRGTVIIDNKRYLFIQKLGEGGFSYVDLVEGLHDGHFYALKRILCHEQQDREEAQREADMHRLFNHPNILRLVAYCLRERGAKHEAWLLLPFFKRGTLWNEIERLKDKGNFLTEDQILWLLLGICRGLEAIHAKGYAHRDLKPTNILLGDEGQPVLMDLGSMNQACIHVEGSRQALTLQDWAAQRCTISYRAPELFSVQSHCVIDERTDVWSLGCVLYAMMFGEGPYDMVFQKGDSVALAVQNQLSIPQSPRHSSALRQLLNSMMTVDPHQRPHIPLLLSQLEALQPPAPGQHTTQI

In the case of `C[C@H](Nc1ncnc2nc[nH]c12)c1cc2cccc(Cl)c2c(=O)n1-c1ccccc1`, the Activity is 96.8% in [1]; 97% in [2]; 94% in [3]; 97.5% in [4]; 106% in assay [5]; 97.3% in assay [6]. In addition, the Activity is 95.7% in assay [7]; 89% in assay [8]; 95.8% in assay [9]; 98.7% in assay [10]; 95.5% in [11]; 97.3% in assay [12].
Take `CC[C@H](Nc1ncnc2[nH]cnc12)c1nc2cccc(F)c2c(=O)n1-c1ccccc1`: the Activity stood at 104% in assay [1]; 96.5% in assay [2]; 91.2% in [3]; 97.3% in assay [4]; 105% in assay [5]; 97.9% in assay [6]. Also, the Activity in assay [7] was 95.5%; in assay [8], 87.8%; in [9] it was 94.4%; in assay [10], 97.3%; in assay [11], 102%; in assay [12], 97.2%.
For the compound `CC(C)Oc1ccc(-c2nn([C@@H](C)c3oc4ccc(F)cc4c(=O)c3-c3cccc(F)c3)c3ncnc(N)c23)cc1F` [UMBRALISIB], the Activity in assay [1] came to 105%; in assay [2], 97.7%; in [3], 97.6%; in [4], 94.5%; in assay [5], 108%; in assay [6], 92%. For the same compound, the Activity came to 96.9% in assay [7]; 87% in [8]; 97.5% in assay [9]; 96.8% in assay [10]; 91.4% in assay [11]; 98.7% in [12].
